The values below come from ChEMBL document CHEMBL5291721, “A preclinical secondary pharmacology resource illuminates target-adverse drug reaction associations of marketed drugs” (Nat Commun, 2023).

The target of this experiment is Vascular endothelial growth factor receptor 2 (Homo sapiens, UniProt P35968). Type of experiment: functional.

What is called AC50 is the concentration at which the activity in the assay is half-maximal.
Note: assay procedure not described here.

Sequence of Vascular endothelial growth factor receptor 2 (P35968 whole entry): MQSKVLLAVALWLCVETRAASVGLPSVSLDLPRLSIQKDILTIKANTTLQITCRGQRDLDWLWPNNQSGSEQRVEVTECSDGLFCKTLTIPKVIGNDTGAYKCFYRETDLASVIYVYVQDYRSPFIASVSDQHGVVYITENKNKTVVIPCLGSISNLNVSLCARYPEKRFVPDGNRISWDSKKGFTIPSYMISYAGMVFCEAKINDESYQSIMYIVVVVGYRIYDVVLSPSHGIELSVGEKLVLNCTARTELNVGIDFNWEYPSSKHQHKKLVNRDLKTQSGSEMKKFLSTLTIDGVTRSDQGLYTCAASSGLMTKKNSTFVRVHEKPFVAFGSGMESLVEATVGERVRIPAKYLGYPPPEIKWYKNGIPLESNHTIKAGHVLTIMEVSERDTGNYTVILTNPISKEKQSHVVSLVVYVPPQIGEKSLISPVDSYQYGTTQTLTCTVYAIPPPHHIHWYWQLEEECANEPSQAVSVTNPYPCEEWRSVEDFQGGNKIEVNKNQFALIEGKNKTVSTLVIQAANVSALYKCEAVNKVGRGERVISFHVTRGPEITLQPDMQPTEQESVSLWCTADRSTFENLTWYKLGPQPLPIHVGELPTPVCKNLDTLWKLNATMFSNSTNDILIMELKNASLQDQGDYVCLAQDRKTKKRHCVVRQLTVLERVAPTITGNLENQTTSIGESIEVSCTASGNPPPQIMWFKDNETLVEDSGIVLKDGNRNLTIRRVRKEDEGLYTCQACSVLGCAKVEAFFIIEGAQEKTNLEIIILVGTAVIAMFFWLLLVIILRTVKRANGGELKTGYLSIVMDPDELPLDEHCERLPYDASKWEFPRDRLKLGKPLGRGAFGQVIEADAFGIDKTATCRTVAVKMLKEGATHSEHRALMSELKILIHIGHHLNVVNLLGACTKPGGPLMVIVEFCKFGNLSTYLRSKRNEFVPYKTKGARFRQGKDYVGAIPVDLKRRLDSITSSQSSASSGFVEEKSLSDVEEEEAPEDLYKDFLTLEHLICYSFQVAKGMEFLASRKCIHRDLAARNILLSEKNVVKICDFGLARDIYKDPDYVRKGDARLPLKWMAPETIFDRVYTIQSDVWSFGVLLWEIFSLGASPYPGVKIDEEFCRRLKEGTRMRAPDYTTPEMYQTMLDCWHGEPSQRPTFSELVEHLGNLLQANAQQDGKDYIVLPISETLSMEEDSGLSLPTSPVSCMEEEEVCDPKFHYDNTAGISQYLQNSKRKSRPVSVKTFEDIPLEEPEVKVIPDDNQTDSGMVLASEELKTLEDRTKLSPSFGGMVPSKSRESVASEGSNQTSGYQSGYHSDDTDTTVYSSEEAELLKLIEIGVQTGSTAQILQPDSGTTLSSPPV

For the molecule `Nc1ncnc(Nc2ccc(Cl)cc2)n1` [CHLORAZANIL], half-maximal activity (AC50) was put at 15 µM.
The molecule `O=C(O)CC(O)(CC(=O)O)C(=O)O` [CITRIC ACID] had an AC50 above 30 µM.
Turning to `CCC[C@@H]1C[C@@H](C(=O)N[C@@H]([C@H]2O[C@H](SC)[C@H](OP(=O)(O)O)[C@@H](O)[C@H]2O)[C@H](C)Cl)N(C)C1` [CLINDAMYCIN PHOSPHATE], the AC50 was above 30 µM.
In the case of `Cc1onc(-c2c(Cl)cccc2Cl)c1C(=O)N[C@@H]1C(=O)N2[C@@H]1SC(C)(C)[C@@H]2C(=O)O` [DICLOXACILLIN], the AC50 is above 30 µM.
The value for `C[C@H]1O[C@@H](O[C@H]2[C@@H](O)C[C@H](O[C@H]3[C@@H](O)C[C@H](O[C@H]4CC[C@@]5(C)[C@H](CC[C@@H]6[C@@H]5CC[C@]5(C)[C@@H](C7=CC(=O)OC7)CC[C@]65O)C4)O[C@@H]3C)O[C@@H]2C)C[C@H](O)[C@@H]1O` [DIGITOXIN] was above 30 µM; that for `OC(CCCN1CCCCC1)(c1ccccc1)c1ccccc1` [DIPHENIDOL] was above 30 µM; that for `O=C(CCCN1CC=C(n2c(=O)[nH]c3ccccc32)CC1)c1ccc(F)cc1` [DROPERIDOL] was above 30 µM.
In turn, `C[C@@H](O)[C@H]1C(=O)N2C(C(=O)O)=C([C@H]3CCCO3)S[C@H]12` [FAROPENEM] displayed an AC50 above 30 µM.
For `CCOC(=O)c1ccc(OC(=O)CCCCCNC(=N)N)cc1` [GABEXATE] the value was above 30 µM.
The value for `CCCCC/C=C\C/C=C\C/C=C\CCCCC(=O)O` [GAMOLENIC ACID] was above 30 µM; that for `COCCOc1cnc(NS(=O)(=O)c2ccccc2)nc1` [GLYMIDINE] was above 30 µM; that for `CC(N)CCCC(C)(C)O` (stereo unspecified) [HEPTAMINOL] was above 30 µM.
In the case of `CCC(=O)O[C@]1(C(=O)COC(C)=O)CC[C@H]2[C@@H]3CCC4=CC(=O)CC[C@]4(C)[C@H]3[C@@H](O)C[C@@]21C` [HYDROCORTISONE ACEPONATE], the AC50 is above 30 µM.
For `O=[N+]([O-])O[C@H]1CO[C@H]2[C@@H]1OC[C@H]2O[N+](=O)[O-]` [ISOSORBIDE DINITRATE] the value was above 30 µM; for `NC(=O)NCCC[C@H](N)C(=O)O` [L-CITRULLINE], above 30 µM; for `CC(=O)O[C@H]1C[C@H](O[C@H]2[C@@H](O)C[C@H](O[C@H]3[C@@H](O)C[C@H](O[C@H]4CC[C@@]5(C)[C@H](CC[C@@H]6[C@@H]5C[C@@H](O)[C@]5(C)[C@@H](C7=CC(=O)OC7)CC[C@]65O)C4)O[C@@H]3C)O[C@@H]2C)O[C@H](C)[C@H]1O[C@@H]1O[C@H](CO)[C@@H](O)[C@H](O)[C@H]1O` [LANATOSIDE C], above 30 µM.
The value for `Cc1cc(CCN2CCN(c3cccc(Cl)c3)CC2)n[nH]1` [MEPIPRAZOLE] was above 30 µM; that for `CC[N+](C)(CC)CCOC(=O)C1c2ccccc2Oc2ccccc21` [METHANTHELINE] was above 30 µM.
The molecule `CO[C@H]1[C@@H](O)C[C@H](O[C@H]2[C@@H](O)C[C@H](O[C@H]3[C@@H](O)C[C@H](O[C@H]4CC[C@@]5(C)[C@H](CC[C@@H]6[C@@H]5C[C@@H](O)[C@]5(C)[C@@H](C7=CC(=O)OC7)CC[C@]65O)C4)O[C@@H]3C)O[C@@H]2C)O[C@@H]1C` [METILDIGOXIN] came in with an AC50 above 30 µM.
`CCOC(=O)[C@H](CCc1ccccc1)N[C@@H](C)C(=O)N1Cc2cc(OC)c(OC)cc2C[C@H]1C(=O)O` [MOEXIPRIL] had an AC50 above 30 µM.
Molecule `CC(c1ccc(Cl)c(Cl)c1)N1N=C(N)CC1=O` (stereo unspecified) [MUZOLIMINE] showed a half-maximal activity concentration (AC50) above 30 µM.
For `CCN(CC)CCOC(=O)C(Cc1cccc2ccccc12)CC1CCCO1` (stereo unspecified) [NAFRONYL] the value was above 30 µM.
The value for `N[C@@H](Cc1c[nH]c2ccc(O)cc12)C(=O)O` [OXITRIPTAN] was above 30 µM; that for `C1CNCCN1` [PIPERAZINE] was 23.3 µM; that for `c1cc(CN2CCCNCCNCCCNCC2)ccc1CN1CCCNCCNCCCNCC1` [PLERIXAFOR] was above 30 µM.
For `CO[C@H]1/C=C/O[C@@]2(C)Oc3c(C)c(O)c4c(O)c(cc(O)c4c3C2=O)NC(=O)/C(C)=C\C=C\[C@H](C)[C@H](O)[C@@H](C)[C@@H](O)[C@@H](C)[C@H](OC(C)=O)[C@@H]1C` [RIFAMYCIN] the value was above 30 µM.
